Measured values from patent US10905676B2, “Angiotensin II receptor antagonist for the prevention or treatment of systemic diseases in cats” (priority 2017, dated 2021).

Columns and labels:
[1] = test system: cats with moderate to severe systemic hypertension; test: European study of efficacy and safety in cats with systemic hypertension (Example 6); assay type: in vivo
Description: A European study was conducted to investigate the efficacy and safety of telmisartan oral solution for the treatment of systemic hypertension in cats. The first part or phase of the study (Day 1 to Day 28) occurred over a 28-day placebo-controlled, double-blinded treatment period (efficacy phase of the study). […] The target population for this study was domestic client-owned cats with moderate to severe systemic hypertension (cats having a mSBP of at least about 160 mmHg). […] A schematic overview of the study and the two phases of treatment is depicted in FIG. 3. There was a similar pre-treatment mSBP observed for both treatment groups (about 177-179 mmHg). Cats diagnosed with moderate to severe systemic hypertension in compliance with the “ACVIM consensus statement: Guidelines for the Identification, Evaluation, and Management of Systemic Hypertension in Dogs and Cats” (Brown et al. Guidelines for the identification, evaluation, and management of systemic hypertension in dogs and cats. ACVIM Consensus Statement. J Vet Intern Med 2007; 21: 542-558) at two separate Screening Visits within 14 days of the start of treatment were eligible for the study. The etiology of the hypertension was classified as due to chronic kidney disease (CKD), due to hyperthyroidism, due to both CKD and hyperthyroidism or as idiopathic hypertension. Cats were not allowed any substances which are known to affect blood pressure from 14 days prior to the start of treatment. […] A 5 mL dosing syringe (demarcated in 0.25 mL increments) was used for the first phase and a 2 mL dosing syringe (demarcated in 0.1 mL increments, to achieve down titrations as necessary) to perform dosing either directly into the mouth of the cat or with a very small amount of food. For the first (efficacy) phase of the study, all recruited cats were examined on two visits at Day 14 and Day 28. Examinations included measurement of mSBP, a complete physical examination, fundoscopic examination, an assessment of quality of life, and abbreviated clinical pathology (hematology and biochemistry). […] These cats were further examined, as above, for visits at Days 56, 84 and 120. During the second (extended) phase of the study, it was possible to decrease or down titrate the dose for certain cats as described herein.

[2] = human patients, 160 mg daily (80 mg twice daily); cited from earlier work
[3] = Pharmacokinetics and absolute bioavailability after single oral or intravenous administration (Example 1)
Description: Four clinically healthy male and female domestic short hair cats (HsdCpb: CADS) with a body weight range of 2.6-4.2 kg were used in this study. The animals were randomly allocated to 2 groups, 2 animals per group.
Blood samples were drawn at 0 h (i.e. prior to treatment), 5 (after i. v. injection only), 15, 30 and 60 min as well as 2, 4, 8, 24, 72 and 96 h after each treatment. Clinical observations were also conducted at these time points. Plasma samples were sent to the analytical laboratory and analysed there using a validated method. The plasma levels measured in each animal were subjected to various pharmacokinetic calculations.

[4] = Safety after repeated oral administration over four weeks (Example 3); assay type: in vivo, cats
Description: 5-5. 1 kg were used in this study. The animals were allocated to 3 groups, 4 animals per group. […] The bottles with the test/control article looked identical with the exception of the animal no. in order to achieve blinding.
Blood samples for haematology and clinical chemistry were collected from the animals on days-1 (i.e. prior to the first treatment) and again on days 3, 7, 14, 28. Body weights were measured weekly and electrocardiography recording were made on days −1, 14, 21 and 28. A detailed physical examination including determination of rectal temperature and respiratory rate was carried out on days -1, 7, 14, 22 and 28. Systolic blood pressure (once daily) and heart rate (twice daily) were determined five days per week beginning prior to treatment until necropsy. The palatability of the administered article was assessed at various time points throughout treatment using a scoring system. On day 28 of the study, all animals were subjected to necropsy and stomach and kidneys were examined histopathologically. Relevant parameters were analysed using appropriate statistical procedures.

[5] = cats, single i.v. 1 mg/kg, mean, 1 mg/kg
[6] = cats, single oral 1 mg/kg, mean, 1 mg/kg

CCCc1nc2c(C)cc(-c3nc4ccccc4n3C)cc2n1Cc1ccc(-c2ccccc2C(=O)O)cc1 [telmisartan, 4′-[2-n-propyl-4-methyl-6-(1-methylbenzimidazol-2-yl)-benzimidazol-1-ylmethyl]-biphenyl-2-carboxylic acid]
mSBP change on Day 28 ([1]; 2.0 mg/kg once daily oral, n = 165): −24.629 ΔmmHg | mSBP change on Day 14 ([1]; 2.0 mg/kg once daily oral, n = 174): −19.219 ΔmmHg | Mean SABP reduction compared to baseline at respective visit ([1]; SABP at baseline between 160-179 mmHg (171.9), Day 14, n = 98): −16.7 ΔmmHg | Mean SABP reduction compared to baseline at respective visit ([1]; SABP at baseline between 160-179 mmHg, Day 28, n = 94): −22.9 ΔmmHg | Mean SABP reduction compared to baseline at respective visit ([1]; SABP at baseline between 160-179 mmHg, Day 56, n = 87): −24.7 ΔmmHg | Mean SABP reduction compared to baseline at respective visit ([1]; SABP at baseline between 160-179 mmHg, Day 84, n = 85): −23.2 ΔmmHg | Mean SABP reduction compared to baseline at respective visit ([1]; SABP at baseline between 160-179 mmHg, Day 120, n = 81): −23.5 ΔmmHg | Mean SABP reduction compared to baseline at respective visit ([1]; SABP at baseline between 180-200 mmHg (188.4), Day 14, n = 76): −22.3 ΔmmHg | Mean SABP reduction compared to baseline at respective visit ([1]; SABP at baseline between 180-200 mmHg, Day 28, n = 71): −26.6 ΔmmHg | Mean SABP reduction compared to baseline at respective visit ([1]; SABP at baseline between 180-200 mmHg, Day 56, n = 65): −29.6 ΔmmHg | Mean SABP reduction compared to baseline at respective visit ([1]; SABP at baseline between 180-200 mmHg, Day 84, n = 63): −30.7 ΔmmHg | Mean SABP reduction compared to baseline at respective visit ([1]; SABP at baseline between 180-200 mmHg, Day 120, n = 63): −32.9 ΔmmHg | % of cats with Systolic Blood Pressure < 160 mmHg ([1]; Visit Day 14): 46.6% | N of cats with Systolic Blood Pressure < 160 mmHg ([1]; Visit Day 14): 81 | % of cats with Systolic Blood Pressure < 160 mmHg ([1]; Visit Day 56): 70.9% | N of cats with Systolic Blood Pressure < 160 mmHg ([1]; Visit Day 56): 105 | % of cats with Systolic Blood Pressure < 160 mmHg ([1]; Visit Day 84): 67.8% | N of cats with Systolic Blood Pressure < 160 mmHg ([1]; Visit Day 84): 97 | % of cats with Systolic Blood Pressure < 160 mmHg ([1]; Visit Day 120): 73.1% | N of cats with Systolic Blood Pressure < 160 mmHg ([1]; Visit Day 120): 98 | % of cats with Systolic Blood Pressure < 160 mmHg ([1]; Visit day 28): 62.0% | N of cats with Systolic Blood Pressure < 160 mmHg ([1]; Visit day 28): 101 | cats with an increased appetite ([1]; between day −1 and 28): 11% | reduction in mSBP (mean change in SBP from baseline) ([1]; each visit day, whole study duration of 120 days): greater than 20 mmHg | cats with adverse events ([1]; efficacy phase, 115 adverse events coded for 58 cats): 29.9% | cats in which it was possible to down-titrate the dose to <2 mg/kg ([1]; extended use phase): 21.7% | Mean Systolic Blood Pressure change on Day 120 compared to baseline SBP ([1]; extended use phase, n = 144 cats): −27.62 ΔmmHg | Mean Systolic Blood Pressure change on Day 84 compared to baseline SBP ([1]; extended use phase, n = 148 cats): −26.50 ΔmmHg | Mean Systolic Blood Pressure change on Day 56 compared to baseline SBP ([1]; extended use phase, n = 152 cats): −26.94 ΔmmHg | changes in a physical or clinical pathology parameter ([1]; following 120 days of treatment): no clinically relevant changes | mean body weight, mean heart rate, respiratory rate, and rectal temperature ([1]; following 120 days treatment): no clinically significant change | cats with at least one adverse event ([1]; second (extended use) phase, 62 cats): 32.0% | plasma level (Cmax±SD) [2]: about 2800±2400 ng/ml | time until which mean plasma concentrations increased ([3]; after oral administration): 15 to 30 min | plasma concentrations at 24 h ([3]; both routes, orally and intravenously): No quantifiable plasma concentrations | clearance ([3]; both, domestic short hair (HsdCpb: CADS), plasma, iv, 1 mg/kg): 45.5 mL/min/kg | V ([3]; cats, single i.v. 1 mg/kg, mean): 8.856 L/kg | AUC 0 → ∞ [3, 5]: 384.751 ng·h/mL | t½ [3, 5]: 2.252 h | V/f ([3]; cats, single oral 1 mg/kg, mean): 20.453 L/kg | AUC 0 → ∞ [3, 6]: 150.426 ng·h/mL | t max [3, 6]: 0.438 h | t½ [3, 6]: 2.169 h | clinical signs ([3]; entire course of the study): No specific clinical signs | tolerability ([3]; in vivo, 1 mg/kg): well tolerated | physical and ECG examinations ([4]; all time points): did not reveal treatment-related findings | histopathology of stomach and kidneys ([4]; day 28): no histopathological findings considered to be associated with the treatment | necropsy findings ([4]; day 28): No animal showed any specific finding | body weights, rectal temperature, respiratory and heart rates ([4]; during the course of the study): No significant differences | clinical findings ([4]; entire study period, 1 and 3 mg/kg once daily): No clinical findings clearly attributable to the treatment | haematological and clinical chemistry parameters including differential leukocyte count ([4]; treated groups vs concurrent controls): No treatment-related differences
